In patent US12274732B2, “Anti-pathogen composition and methods of use thereof” (Tenfold Technologies, LLC, priority 2017, dated 2025):
Positions of bridges follow the written chain, without caps; N, C: chain ends. Non-standard residues stand in square brackets, D forms with d. Residues, ends and D or L forms follow the SMILES beside them. ξ: configuration not given here. *: point of attachment. Pentadecanoyl(3ξ-OH,15-Gua) = N=C(N)NCCCCCCCCCCCCC(O)CC(=O)*; d(aThr) = C[C@@H](O)[C@@H](N)C(=O)O

Assays:
[1] = system: Vancomycin-resistant Enterococcus faecium (VRE); assay: In vitro antimicrobial activity against VRE; format: cell-based
Protocol: (§1) Fifty organic extracts were prepared from 25 whole broth of four microbial strains (MS1479, MS2379, MS2820, and MS2414), which were fermented in different media for the antimicrobial testing. Note each whole broth culture generated one n-butanol extract from cultural supernatant and one methanol extract from cell pellets.
(§2) The antimicrobial activities of the 50 organic extracts were studied against three fungal pathogens—Candida albicans, Aspergillus fumigatus, and Cryptococcus neoformans—and five bacterial strains-Methicillin-resistant Staphylococcus aureus (MIRSA), Escherichia coli, Pseudomonas aeruginosa, Klebsiella pneumoniae, and Vancomycin-resistant Enterococcus faecium (VRE) (FIG. 2). The test concentrations for all extracts were in the range of 8-200 μg/mL (Table 3).
(§3) The antimicrobial activities of identified fusaricidins were in an in vitro study against several clinically relevant microbes. […] For the in-vitro assays against bacteria, fusaricidins were tested against methicillin-resistant Staphylococcus aureus, vancomycin-resistant Enterococcus faecium, Escherichia coli, and Pseudomonas aeruginosa using four antibacterial drugs methicillin, vancomycin, cefotaxime, and meropenem as controls. […] Fusaricidins were also tested against fungal pathogens Cryptococcus neoformans, Candida albicans, and Aspergillus fumigatus and compared with two antifungal drugs, fluconazole and amphotericin B (Table 13). Moreover, the anti-parasitic activity was also tested against L. donovani and T. brucei (Table 14).

[2] = system: Methicillin-resistant Staphylococcus aureus (MRSA); assay: In vitro antimicrobial activity against MRSA; format: cell-based
Protocol: as §1, §2, §3

[3] = Heat stability of fusaricidins, whole broth autoclaved; format: physicochemical; conditions: fermentation whole broth autoclaved at 121.5° C. for 30 minutes
Protocol: In order to test the heat stability of fusaricidins, the fermentation whole broth was autoclaved at 121.5° C. for 30 minutes. Fusaricidin contents were analyzed before and after autoclave. Without being bound by a theory, fusaricidin A is heat stable because significant amounts of fusaricidin A were detected after the harsh heat treatment in most cases (FIG. 3B).

## CC(C)[C@@H]1NC(=O)[C@@H](C(C)C)NC(=O)[C@@H](NC(=O)CC(O)CCCCCCCCCCCCNC(=N)N)[C@@H](C)OC(=O)[C@@H](C)NC(=O)[C@@H](CC(N)=O)NC(=O)[C@@H]([C@@H](C)O)NC1=O (stereo partly drawn) [Fusaricidin A] ({Pentadecanoyl(3ξ-OH,15-Gua)}-T[dV]V[d(aThr)][dN][dA]; ester 1-C)
[1]
  activity against VRE (in words): strong activity
[2]
  activity against MRSA (in words): strong activity
[3]
  heat stability: heat stable
